Like-named read-outs stand apart in the source and are kept apart here.
What was measured:
IL-8 release = assay: In vitro inhibition of LPS-induced IL-8 release in ECV304 endothelial cells (ELISA); assay type: cell-based, human; conditions: for IC50: 1 hour pre-incubation, supernatant after one night, concentration giving 50% of highest obtainable inhibition, read-out: IL-8 release potency IC50; for IL-8 release efficacy (%): highest obtainable inhibition
Description: A) Release of Interleukin 8 (IL-8)
A human endothelial immortalized cell line (ECV304) was obtained from ATTC (Rockville, Md.) and grown in Medium 199, mod. Earle's salts (GIBCO, Life Technologies, Grand Island, N.Y.), supplemented with 20% Fetal Calf Serum (GIBCO), 100 U/ml of penicillin and 100 µg/ml of streptomycin (SIGMA, St. Louis, Mo.) in wet atmosphere with 5% CO2 at 37° C.
The cells were cultivated on 96 well plates up to obtain a confluent monolayer. The compounds to be evaluated were dissolved in DMSO at 10^−2M and diluted with culture medium.
The compounds were pre-incubated with the cells 1 hour before the challenge.
The release of IL-8 was induced by adding 0.66 µg/ml of lipopolysaccharide B (E. coli 055:B5, Difco, Detroit, Mich.) in a final volume of 200 µl.
After one night, the supernatant was collected for the IL-8 test.
The specific immunoreactivity for IL-8 in the culture supernatant was measured with ELISA kit (Amersham, UK).
Results were expressed as the highest obtainable inhibition (efficacy) and, whether possible, as the concentration at which 50% of such effect (TC50) is obtained.

superoxide anion release = assay: In vitro inhibition of FMLP-stimulated superoxide anion release from neutrophils (Lucigenin-enhanced chemiluminescence); assay type: cell-based, human; conditions: neutrophils of healthy volunteers, 30 minutes pre-incubation at 37° C., FLMP stimulation, read-out: O2 release IC50
Description: B) Release of Superoxide Anions
Neutrophils were separated from venous blood of healthy volunteers by centrifugation on Ficoll-Hypaque, followed by sedimentation on 6% dextrane and osmotic lysis of erythrocytes. Neutrophils were then washed and resuspended in a medium made of RPMI-1640 supplemented with 5% foetal calf serum and 1.34 mmoles/l of disodium dihydrate EDTA. The cells were maintained for 24 hours at 4° C. and before the test the suspension was centrifugated and resuspended in HBSS (Hanks' balanced salt solution). The vitality and the purity of the neutrophil preparation was verified by dyeing with Trypan blue and Turk blue.
The superoxide anions were measured by using Lucigenin (bis-N-methylacridinium nitrate)-enhanced chemiluminescence technique.
Neutrophils (2×10^6 cells/ml) were pre-incubated for 30 minutes at 37° C. in 900 µl of HBSS with and without the tested compound (reading system).
The production of superoxide anions was measured with a Lumac/3M bio-counter after addition of 100 µl of a solution in HBSS of Lucigenin (2 mmoles/l) and N-formyl-L-methionyl-L-leucyl-L-phenylalanine (FLMP) as stimulating agent at the concentration of […] to the reading system. FLMP was dissolved in DMSO (1×10^−2 M) and further diluted in HBSS. The compound to be tested was dissolved in DMSO at the concentration of 10^−2 M. Lower concentrations, in DMSO, were prepared from that solution, and tested. The DMSO amount present in the reading system was lower than 1%.
The luminosity values obtained at the peak, for each tested concentration of the compound, were transformed in inhibition percentage in comparison with the reference.
The concentration able to inhibit the production of superoxide anion at 50% (IC50) was calculated from the obtained “dose-response” curve.

[1] = system: neutrophilia induced by LPS; assay: In vivo inhibition of neutrophilia induced by LPS after repeated administrations (bronchoalveolar lavage); parameters: species or system rat; conditions: Sprague-Dawley rats, compound i.p. twice a day for 6 days and 7th day 1 hour before and 5 hours after LPS 6 mg/kg i.p.; BALF 24 hours after LPS
Description: In vivo Pharmacological Activity
Male Sprague-Dawley rats weighing between 200 and 300 g were used.
The rats used in the experiments were not evidently infected. The animals were maintained in standard conditions for 7 days before being sacrificed.
LPS (E. coli lipopolisaccharide) (endotoxin; 055:B5 serum-type; Sigma Chemical Co., St. Louis, Mo.) was dissolved in saline sterile solution and was administered by intraperitoneal injection (i.p.) at a dose of 6 mg/kg (1 ml/kg). Analogously the saline solution and/or the carrier (saline solution+0.5% Tween 20) were injected into the control animals.
Compound Administration (Prophylactic Treatment)
Each compound was administered by i.p. injection twice a day for 6 days, the 7th day 1 hour before and 5 hours after LPS administration. The compounds were suspended with 0.5% Tween 20 in the saline solution.
After 24 hours from the LPS injection rats were sacrificed with an overdose of nembutal (100 mg/kg i.p.). The trachea was incannulated and the lung was washed by instilling two 5 ml aliquots of PBS (phosphate buffer saline) at 37° C. and the fluid was immediately removed. The fluid was again injected and the procedure was altogether repeated three times for each aliquot.
Cell Counting and Differentiation
200 μl of BALF (bronchoalveolar lavage fluid) were diluted in 1 ml of cold water and 19 ml of Isoton. The overall number of cells was counted twice by using Contraves autolyser 800. When the total number was lower than 2000, BALFs were centrifugated at 800 rpm for 10 minutes in order to separate the cells from the supernatant. The supernatants were discharged and the cells resuspended in a small amount of PBS. For the cytological evaluation, 50 μl of the solution with the resuspended cells were centrifugated for 1 minute at 1300 rpm by using a Shandon Cytospin centrifuge. The slides were fixed in acetone and dyed with DiffQuick. The differential counts of cells were performed on each slide by counting 200 cells at random; cellular types were classified as neutrophils, eosinophils and mononuclear cells according to morphological standard criteria.

[2] = Homo sapiens, ECV-304, LPS 0.66 μg/ml

Molecule | IC50 (IL-8 release; LPS 0.66 μg/ml) [µM] | IL-8 release efficacy (%) (IL-8 release; LPS 0.66 μg/ml) | IC50 (superoxide anion release) [µM] | Inhibition (%) [1] [%] | IC50 (IL-8 release; [2]) [µM] | IC50 (superoxide anion release; Homo sapiens, Neutrophil) [µM]
3′-de(dimethylamino)-erythromycin A (E)-9-O-[2-methoxy-ethoxy]-methyl]-oxime] [Compound 5] | 12 | 55 ± 0.9 | > 100 | – | – | –
3′-de(dimethylamino)-erythromycin A (E)-9-[O-[2-[6-[(thiazol-2-ylmethyl)-amino]-hexyl-amino]-ethyl]-oxime] [Compound 8] | – | 19 ± 1 | 3.5 ± 0.2 | – | – | –
3′-de(dimethylamino)-erythromycin A (E)-9-[O-[2-[(6-amino-hexyl)-amino]-ethyl]-oxime] [Compound 6] | 7.7 ± 0.3 | 37 ± 10 | 9.9 ± 0.69 | −11 | – | –
3′-de(dimethylamino)erythromycin A (E)-9-[O-[2-[6-(benzylamino)-hexylamino]-ethyl]-oxime] [Compound 9] | – | – | 3.5 ± 0.5 | −96 | – | –
CCC1OC(=O)C(C)C(OC2CC(C)(OC)C(O)C(C)O2)C(C)C(OC2OC(C)C=CC2O)C(C)(O)CC(C)C(=NO)C(C)C(O)C1(C)O (stereo not shown) [Compound 1, 3′-de(dimethylamino)-3′,4′-dehydro-erythromycin A Oxime] | – | 29 | 35.3 ± 5.4 | – | – | –
CC[C@H]1OC(=O)[C@H](C)[C@@H](O[C@H]2C[C@@](C)(OC)[C@@H](O)[C@H](C)O2)[C@H](C)[C@@H](O[C@@H]2O[C@H](C)CC[C@H]2O)[C@](C)(O)C[C@@H](C)C(=NO)[C@H](C)[C@@H](O)[C@]1(C)O [Compound 2, 3′-de(dimethylamino)-erythromycin A Oxime] | – | 29 | 11.4 ± 2.9 | −31 | – | –
CCC1OC(=O)C(C)C(OC2CC(C)(OC)C(O)C(C)O2)C(C)C(OC2OC(C)CCC2O)C(C)(O)CC(C)C(=NOCCOCCNCc2ccccc2)C(C)C(O)C1(C)O (stereo not shown) [Compound 11, 3′-de(dimethylamino)-erythromycin A (E)-9-[O-[2-[2-(benzylaminol)-ethoxy]-ethyl]-oxime]] | – | 22 ± 4 | 5 | – | – | –
CCC1OC(=O)C(C)C(OC2CC(C)(OC)C(O)C(C)O2)C(C)C(OC2OC(C)CCC2O)C(C)(O)CC(C)C(=NOCCNCCNCc2nccs2)C(C)C(O)C1(C)O (stereo not shown) [Compound 16, 3′-de(dimethylamino)-erythromycin A (E)-9-[O-[2-[2-[(thiazol-2-ylmethyl)-amino]-ethyl-amino]-ethyl]-oxime]] | – | 35 | 14.3 | – | – | –
CC[C@H]1OC(=O)[C@H](C)[C@@H](O[C@H]2C[C@@](C)(OC)[C@@H](O)[C@H](C)O2)[C@H](C)[C@@H](O[C@@H]2O[C@H](C)C[C@H](N(C)C)[C@H]2O)[C@](C)(OC)C[C@@H](C)C(=O)[C@H](C)[C@@H](O)[C@]1(C)O [clarithromycin, reference compound] | – | 48 ± 6 | – | −47 | 8.9 ± 3.2 | 49.2 ± 1.9
CC[C@H]1OC(=O)[C@H](C)[C@@H](O[C@H]2C[C@@](C)(OC)[C@@H](O)[C@H](C)O2)[C@H](C)[C@@H](O[C@@H]2O[C@H](C)C[C@H](N(C)C)[C@H]2O)[C@](C)(O)C[C@@H](C)C(=O)[C@H](C)[C@@H](O)[C@]1(C)O [erythromycin, reference compound] | – | 27 ± 1 | – | −46 | – | > 100
CC[C@H]1OC(=O)[C@H](C)[C@@H](O[C@H]2C[C@@](C)(OC)[C@@H](O)[C@H](C)O2)[C@H](C)[C@@H](O[C@@H]2O[C@H](C)C[C@H](N(C)C)[C@H]2O)[C@](C)(O)C[C@@H](C)/C(=N\OCOCCOC)[C@H](C)[C@@H](O)[C@]1(C)O [roxithromycin, reference compound] | – | 43 ± 6 | – | −50 | 5.5 ± 1.5 | 89 ± 5

— patent publication US6455576B1, “Macrolides with anti-inflammatory activity” (Zambon Group S.p.A., priority 1999, dated 2002)
